Experimental data: patent publication US10532987B2, “Compounds and methods for inducing browning of white adipose tissue” (GUANGZHOU INSTITUTES OF BIOMEDICINE AND HEALTH, CHINESE …, priority 2015, dated 2020)

Tested on: Ucp1
Assay: UCP1 luciferase assay (Ucp1 up-regulation in differentiated inguinal adipocytes of Ucp1-luciferase knock-in mice)
Assay type: cell-based
Conditions: Mus musculus, Adipocyte, 48 h, 2 days treatment, luciferase activity, read-out: Ucp1 activation fold/corresponding concentration
Method: TEST EXAMPLE 1 UCP1 Luciferase Assay
Evaluating Compounds that Induce Ucp1 Up-Regulation
Ucp1-luciferase knock-in mice will be housed in cages and fed on standard chow diets (the detailed procedures please see reference 14). The 8-week-old mice will be killed by the cervical dislocation and put into 75% alcohol for 5 minutes. The inguinal adipose tissue will be dissected out and transferred to the three 10-cm petri dishes and washed with PBS for three times. The adipose tissue will be dissected and minced on a 10-cm petri dish for several minutes and then pipetted into 20 ml 0.1% collagenase solution in 50 ml conical tubes and digested at 37° C. for 1 hour. Next, 20 ml culture medium will be added to terminate the digestion and centrifuged for 10 minutes at 1000 rpm respectively. The supernatants will be removed and the pellets re-suspended in 10 mL culture medium and plated into 10-cm plates. The cells will be left to adhere to the plates overnight and the culture medium will be changed every other day. The confluent cells will be trypsinized, counted and plated to 24-well plate (5×10^4 cells/well). The cells will be washed and re-fed the next day (as day −2). Two days later (day 0), the cells will usually become confluent and be induced to differentiate with MDIR medium. On day 2, the medium will be changed to IR medium and re-fed every 2 days. Complete differentiation is usually achieved by day 10. On day 10, the medium will be changed to the culture medium of 10% FBS/DMEM with indicated drugs along with the positive and negative controls for 2 days. The media will be removed and the cells washed with 1 ml PBS per well three times. Then 100 μl lysis buffer will be used to lyse the cells at 4° C. for 1 hour. 30 μl culture medium, 30 μl cell lysates and 60 μl Steady-Glo® Reagent were added to a well of 96-well-plate and the luminescence will be measured using a luminometer. The protein concentration will be determined using 20 μl cell lysates and specific activity of luciferase will be tabulated and data analyzed.

Question: For c1ccc(Nc2nc(-c3ccc4c(c3)OCO4)cs2)nc1 [Compound 82, 4-(benzo[d][1,3]dioxol-5-yl)-N-(pyridin-2-yl)thiazol-2-amine], which fold induction at 1 µM is on record?
Answer: 2.4

Question: c1ccc(Nc2nc(-c3cccnc3)cs2)nc1 [Compound 9, N-(pyridin-2-yl)-4-(pyridin-3-yl)thiazol-2-amine] was tested. Which fold induction at 1 µM did it give?
Answer: 3.6

Question: How did the fold induction at 3 µM turn out when COc1ccc(-c2csc(Nc3ccccc3)n2)cc1OC [Compound 20, 4-(3,4-dimethoxyphenyl)-N-phenylthiazol-2-amine] was run?
Answer: 3

Question: Which fold induction at 0.3 µM does the source give for CCOC(=O)N1CCC[C@H]1C(=O)Nc1nc(-c2ccc(OC)c(OC)c2)cs1 [Compound 71, (S)-ethyl 2-(4-(3,4-dimethoxyphenyl)thiazol-2-ylcarbamoyl)pyrrolidine-1-carboxylate] here?
Answer: 1.7

Question: With COc1ccc(-c2csc(Nc3ccc(C)cn3)n2)cc1OC [Compound 11, 4-(3,4-dimethoxyphenyl)-N-(5-methylpyridin-2-yl)thiazol-2-amine] as the molecule, how does the fold induction at 1 µM read?
Answer: 2

Question: For CC(C)(C)CNc1ccc(-c2csc(Nc3ccccn3)n2)cc1 [Compound 56, 4-(4-(neopentylamino)phenyl)-N-(pyridin-2-yl)thiazol-2-amine], which fold induction at 3 µM is on record?
Answer: 2.3

Question: Which fold induction at 3 µM does the source give for COc1cc(OC)cc(-c2csc(Nc3ccccn3)n2)c1 [Compound 18, 4-(3,5-dimethoxyphenyl)-N-(pyridin-2-yl)thiazol-2-amine] here?
Answer: 5.3

Question: Which fold induction at 3 µM does the source give for c1ccc(Nc2nc(-c3ccncc3)cs2)nc1 [Compound 26, N-(pyridin-2-yl)-4-(pyridin-4-yl)thiazol-2-amine] here?
Answer: 3.5

Question: Cc1cc(-c2csc(Nc3ccccn3)n2)ccc1N [Compound 83, 4-(4-amino-3-methylphenyl)-N-(pyridin-2-yl)thiazol-2-amine] was tested. Which fold induction at 3 µM did it give?
Answer: 6

Question: Which fold induction at 3 µM does the source give for O=C(Nc1ccccn1)c1ccc(-c2csc(Nc3ccccn3)n2)cc1 [Compound 69, N-(pyridin-2-yl)-4-(2-(pyridin-2-ylamino)thiazol-4-yl)benzamide] here?
Answer: 4.6

Question: COc1cc(Br)ccc1-c1csc(Nc2ccccn2)n1 [Compound 25, 4-(4-bromo-2-methoxyphenyl)-N-(pyridin-2-yl)thiazol-2-amine] was tested. Which fold induction at 3 µM did it give?
Answer: 1.3

Question: How did the fold induction at 3 µM turn out when COCCOCCNC(=O)c1ccc(-c2csc(Nc3ccccn3)n2)cc1 [Compound 62, N-(2-(2-methoxyethoxy)ethyl)-4-(2-(pyridin-2-ylamino)thiazol-4-yl)benzamide] was run?
Answer: 2.2

Question: Brc1cc(N2CCOCC2)ccc1-c1csc(Nc2ccccn2)n1 [Compound 28, 4-(2-bromo-4-morpholinophenyl)-N-(pyridin-2-yl)thiazol-2-amine] was tested. Which fold induction at 3 µM did it give?
Answer: 3.2

Question: How did the fold induction at 3 µM turn out when O=C(Nc1ccccc1)c1ccc(-c2csc(Nc3ccccn3)n2)cc1 [Compound 58, N-phenyl-4-(2-(pyridin-2-ylamino)thiazol-4-yl)benzamide] was run?
Answer: 1.4

Question: O=[N+]([O-])c1ccc(-c2csc(Nc3ccccn3)n2)cc1 [Compound 34, 4-(4-nitrophenyl)-N-(pyridin-2-yl)thiazol-2-amine] was tested. Which fold induction at 1 µM did it give?
Answer: 3.8

Question: Which fold induction at 3 µM does the source give for COc1ccc(-c2csc(Nc3cc(Cl)ccn3)n2)cc1OC [Compound 13, N-(4-chloropyridin-2-yl)-4-(3,4-dimethoxyphenyl)thiazol-2-amine] here?
Answer: 1.6

Question: Which fold induction at 0.3 µM does the source give for c1ccc(Nc2nc(-c3c[nH]c4ccccc34)cs2)nc1 [Compound 7, 4-(1H-indol-3-yl)-N-(pyridin-2-yl)thiazol-2-amine] here?
Answer: 1.2

Question: CC(=O)OCc1ccc(-c2csc(Nc3ccccn3)n2)cc1 [Compound 60, 4-(2-(pyridin-2-ylamino)thiazol-4-yl)benzyl acetate] was tested. Which fold induction at 3 µM did it give?
Answer: 2.6

Question: With c1ccc(-c2csc(Nc3ccccn3)n2)cc1 [Compound 4, 4-phenyl-N-(pyridin-2-yl)thiazol-2-amine] as the molecule, how does the fold induction at 3 µM read?
Answer: 4.1

Question: COc1ccc(-c2csc(Nc3cc(C)ccn3)n2)cc1OC [Compound 2, 4-(3,4-dimethoxyphenyl)-N-(4-methylpyridin-2-yl)thiazol-2-amine] was tested. Which fold induction at 1 µM did it give?
Answer: 1.1

Question: COc1ccc(-c2csc(NC(=O)c3ccccn3)n2)cc1OC [Compound 32, N-(4-(3,4-dimethoxyphenyl)thiazol-2-yl)picolinamide] was tested. Which fold induction at 3 µM did it give?
Answer: 2.6

Question: COc1ccc(-c2csc(NC(C)=O)n2)cc1OC [Compound 29, N-(4-(3,4-dimethoxyphenyl)thiazol-2-yl)acetamide] was tested. Which fold induction at 0.3 µM did it give?
Answer: 1.2

Question: Which fold induction at 3 µM does the source give for CC(=O)c1ccc(-c2csc(Nc3ccccn3)n2)cc1 [Compound 73, 1-(4-(2-(pyridin-2-ylamino)thiazol-4-yl)phenyl)ethanone] here?
Answer: 1.2

Question: How did the fold induction at 1 µM turn out when CCNC(=O)c1ccc(-c2csc(Nc3ccccn3)n2)cc1 [Compound 53, N-ethyl-4-(2-(pyridin-2-ylamino)thiazol-4-yl)benzamide] was run?
Answer: 3

Question: CCCCOc1ccc(-c2csc(Nc3ccccn3)n2)cc1 [Compound 43, 4-(4-butoxyphenyl)-N-(pyridin-2-yl)thiazol-2-amine] was tested. Which fold induction at 1 µM did it give?
Answer: 2.8

Question: For Nc1ccc(-c2csc(Nc3ccccn3)n2)cc1 [Compound 35, 4-(4-aminophenyl)-N-(pyridin-2-yl)thiazol-2-amine], which fold induction at 1 µM is on record?
Answer: 3.7

Question: For c1ccc(-c2ccc(-c3csc(Nc4ccccn4)n3)cc2)cc1 [Compound 50, 4-(biphenyl-4-yl)-N-(pyridin-2-yl)thiazol-2-amine], which fold induction at 3 µM is on record?
Answer: 2.4

Question: For COc1ccc(-c2nc(Nc3ccccn3)sc2C)cc1OC [Compound 19, 4-(3,4-dimethoxyphenyl)-5-methyl-N-(pyridin-2-yl)thiazol-2-amine], which fold induction at 1 µM is on record?
Answer: 1.6

Question: For Cc1ccc(-c2csc(Nc3ccccn3)n2)cc1C [Compound 80, 4-(3,4-dimethylphenyl)-N-(pyridin-2-yl)thiazol-2-amine], which fold induction at 3 µM is on record?
Answer: 1.5

Question: How did the fold induction at 1 µM turn out when O=C(c1ccc(-c2csc(Nc3ccccn3)n2)cc1)N1CCOCC1 [Compound 52, morpholino(4-(2-(pyridin-2-ylamino)thiazol-4-yl)phenyl)methanone] was run?
Answer: 5.1

Question: N#Cc1cccc(-c2csc(Nc3ccccn3)n2)c1 [Compound 5, 3-(2-(pyridin-2-ylamino)thiazol-4-yl)benzonitrile] was tested. Which fold induction at 3 µM did it give?
Answer: 5.4

Question: Which fold induction at 1 µM does the source give for c1ccc(Nc2nc(-c3ccc4c(c3)CCC4)cs2)nc1 [Compound 81, 4-(2,3-dihydro-1H-inden-5-yl)-N-(pyridin-2-yl)thiazol-2-amine] here?
Answer: 2

Question: For c1ccc(Nc2nc(-c3ccc(CN4CCCCC4)cc3)cs2)nc1 [Compound 72, 4-(4-(piperidin-1-ylmethyl)phenyl)-N-(pyridin-2-yl)thiazol-2-amine], which fold induction at 3 µM is on record?
Answer: 1.8

Question: Which fold induction at 3 µM does the source give for CC(C)NC(=O)Nc1ccc(-c2csc(Nc3ccccn3)n2)cc1 [Compound 37, 1-isopropyl-3-(4-(2-(pyridin-2-ylamino)thiazol-4-yl)phenyl)urea] here?
Answer: 2

Question: Which fold induction at 3 µM does the source give for COC(=O)c1ccc(-c2csc(Nc3ccccn3)n2)cc1 [Compound 48, methyl 4-(2-(pyridin-2-ylamino)thiazol-4-yl)benzoate] here?
Answer: 6

Question: How did the fold induction at 3 µM turn out when FC(F)(F)Oc1ccc(-c2csc(Nc3ccccn3)n2)cc1 [Compound 23, N-(pyridin-2-yl)-4-(4-(trifluoromethoxy)phenyl)thiazol-2-amine] was run?
Answer: 4

Question: How did the fold induction at 3 µM turn out when O=C(COc1ccc(-c2csc(Nc3ccccn3)n2)cc1)N1CCOCC1 [Compound 46, 1-morpholino-2-(4-(2-(pyridin-2-ylamino)thiazol-4-yl)phenoxy)ethanone] was run?
Answer: 1.7
